Here are results for 73 molecules from article PMC12040169 (PLOS Biology, 2025).

This data set in a line: in vitro. As to conditions: human, hela cells, % viability.

For the molecule `Cc1ccc(-c2nnc(S)n2/N=C\c2ccccc2OCC(=O)O)cc1` [CBK264408], the viability (as a rule, a read-out of living cells in per cent, often relative to untreated cells) at 28.5 h, 10 µM was found to be 90.7%.
In the case of `CCN1CCN(c2ccc([N+](=O)[O-])cc2S(=O)(=O)N2CCOCC2)CC1` [CBK264410], the viability at 28.5 h, 10 µM was found to be 113%.
For the molecule `CCN(CC)CCn1c(OC)cc(=O)[nH]c1=O` [CBK264411], the viability at 28.5 h, 10 µM came out at 97.5%.
The same measure, in the same setting: in the case of `O=C(COC(=O)C1CCN(S(=O)(=O)c2cccc3cccnc23)CC1)c1ccc([N+](=O)[O-])cc1` [CBK264412] it was 101%; in that of `O=C1C2C3C=CC(C3)C2C(=O)N1CCNCCO` (stereo not shown) [CBK264414], 93%.
Same read-out and setting: in the case of `O=[N+]([O-])c1ccc(N2CCN(S(=O)(=O)c3ccccc3)CC2)cc1NCc1cccnc1` [CBK264415] it was 96.5%.
For the molecule `O=C1NC(=O)N(c2ccc(Cl)cc2)C(=O)/C1=C\NC(CO)(CO)CO` [CBK264421], the viability at 28.5 h, 10 µM (bulk resorufin, single well) came to 99.7%.
Turning to `O=C(Nc1ccc(Cl)cc1)c1ccc(N2CCN(Cc3ccccc3)CC2)c([N+](=O)[O-])c1` [CBK264422], the viability at 28.5 h, 10 µM was determined as 103%.
The same measure, in the same setting: in the case of `Cc1sc2nc(SCC(=O)NCCO)nc(N)c2c1C` [CBK264423] it was 109%; in that of `Cc1sc2nc(SCCCN3C(=O)c4cccc5cccc(c45)C3=O)nc(N)c2c1C` [CBK264424], 76.6%; in that of `Cc1ccc(C)n1-c1ccc(C(=O)OCC(=O)c2cccc([N+](=O)[O-])c2)cc1` [CBK264427], 97.8%.
Same read-out and setting: in the case of `Cn1c(CSc2nc3sc4c(c3c(=O)[nH]2)CCCC4)nnc1SC/C=C/c1ccccc1` [CBK264428] it was 107%.
Regarding `COC(=O)c1c(NC(=O)CC2Sc3ccccc3NC2=O)sc(C)c1C` (stereo not shown) [CBK264429], the viability at 28.5 h, 10 µM is 103%.
Still for that read-out and setting: in the case of `O=C(OCc1ccc([N+](=O)[O-])cc1)C1CCN(S(=O)(=O)c2cccc3cccnc23)CC1` [CBK264430] it was 115%.
Turning to `O=C1NC(=O)N(Cc2ccccc2)C(=O)/C1=C\NC(CO)(CO)CO` [CBK264431], the viability at 28.5 h, 10 µM (bulk resorufin, single well) stood at 104%.
`COc1cccc(Nc2nnc(-c3cc4cc(OC)ccc4oc3=O)s2)c1` [CBK264432]: the viability at 28.5 h, 10 µM was 94.1%.
As for `O=C(COC(=O)C1CCN(S(=O)(=O)c2cccc3cccnc23)CC1)c1cccc([N+](=O)[O-])c1` [CBK264435], the viability at 28.5 h, 10 µM is 97%.
Same read-out and setting: in the case of `Cc1ccc(-c2nc3ccc(C)cc3c(C(=O)OCC(=O)c3cccc([N+](=O)[O-])c3)c2C)cc1` [CBK264436] it was 104%; in that of `COc1cccc(/C=C2/SC(=S)NC2=O)c1OCCCOc1ccccc1C` [CBK264442], 98.9%.
On the same count and under the same terms, in the case of `NC(=O)c1ccc(NCCCN2CCOCC2)c([N+](=O)[O-])c1` [CBK264443] it was 104%; in that of `CCOc1cc(C(c2c[nH]c3ccccc23)c2c[nH]c3ccccc23)ccc1OCC(=O)O` [CBK264450], 97.1%; in that of `CCOc1cc(/C=C/c2ccc3cccc(O)c3n2)cc(Br)c1O` [CBK264451], 95%.
Still for that read-out and setting: in the case of `CSc1nnc2c(n1)OC(/C=C/c1ccccc1)N(C(C)=O)c1ccccc1-2` (stereo not shown) [CBK264453] it was 99.7%; in that of `Cc1ccc(S(=O)(=O)N(C)CCCC(=O)n2cnc3ccccc32)cc1` [CBK264457], 104%.
As to `CCc1cc2c(=O)c(-c3cnn(-c4ccccc4)c3)c(C(F)(F)F)oc2c(CN2CCCCC2)c1O` [CBK264458], the viability at 28.5 h, 10 µM was determined as 91.7%.
The same measure, in the same setting: to `Cc1n[nH]c(-c2ccc(OCc3cnn(-c4ccccc4)c3)cc2O)c1Oc1ccc(F)cc1` [CBK264461] belongs 116%; to `CC(=O)Nc1ccc(NC(=O)CSC2=C(C#N)C(c3ccco3)C3=C(CCCC3=O)N2)cc1` (stereo not shown) [CBK264462], 91.8%.
As for `COc1ccc(C2C(C(=O)c3ccc(C)cc3)=C(O)C(=O)N2CCN(C)C)cc1OC` (stereo not shown) [CBK264463], the viability at 28.5 h, 10 µM came to 90.1%.
Still for that read-out and setting: to `Cc1ccc(NC(=O)CN2C(=O)S/C(=C\c3cc(C)n(-c4ccc(C(=O)O)cc4)c3C)C2=O)cc1` [CBK264465] belongs 91.6%; to `Cc1cc(C)n(CC(O)CN(c2ccccc2)S(=O)(=O)c2ccccc2)n1` (stereo not shown) [CBK264469], 118%.
Still for that read-out and setting: in the case of `CC1CCN(S(=O)(=O)c2cc(C(=O)OCC(=O)c3ccccc3)c(Cl)cc2Cl)CC1` [CBK264470] it was 95.6%; in that of `CN(C)CCNc1nc(-c2cccnc2)nc2ccccc12` [CBK264471C], 99.7%.
Same read-out and setting: to `CCC(NS(=O)(=O)c1ccc(Br)cc1)C(=O)O` (stereo not shown) [CBK264472] belongs 97%; to `COc1ccc(C2=NN(c3ccc([N+](=O)[O-])cc3)C(=O)/C2=C\c2cccc(OC)c2OC)cc1` [CBK264475], 96%; to `C=CCn1c(SCC(=O)Nc2sc3c(c2C#N)CCC3)nc2scc(-c3ccccc3)c2c1=O` [CBK264477], 104%.
For the molecule `O=C(Oc1ccc2c(=O)c(Oc3ccc(-c4ccccc4)cc3)coc2c1)c1cccnc1` [CBK264479], the viability at 28.5 h, 10 µM turned out to be 97.6%.
The same measure, in the same setting: to `CCCC12CN3CC(CCC)(CN(C1)C3c1ccc([N+](=O)[O-])cc1)C2=O` (stereo not shown) [CBK264481] belongs 101%; to `COC(=O)c1ccc(/C=N/N=C2\NC(=O)C(CC(=O)Nc3ccccc3)S2)cc1` (stereo not shown) [CBK264483], 93.6%.
The same measure, in the same setting: to `COCCN1C(=O)/C(=C2/C(=O)N(CC(=O)Nc3ccccc3)c3ccccc32)SC1=S` [CBK264489] belongs 91.3%; to `O=C1CC(c2ccccc2)CC(NCc2ccccc2)=C1C(=S)Nc1ccccc1` (stereo not shown) [CBK264491], 104%; to `CC1(C)CC(=O)C(C(=S)Nc2ccccc2)=C(NCc2ccccc2)C1` [CBK264498], 91.6%.
Same read-out and setting: to `O=C(CC1S/C(=N/N=C/c2ccc(-c3ccc(Br)cc3)o2)NC1=O)Nc1ccccc1` (stereo not shown) [CBK264499] belongs 106%; to `Cc1ccc(NC(=O)CN2C(=O)S/C(=C\c3ccc4c(c3)n(C)c(=O)n4C)C2=O)cc1` [CBK264501], 112%.
With `Cc1ccc(C2C(C(=O)c3ccc(Cl)cc3)=C(O)C(=O)N2CCCN2CCOCC2)o1` (stereo not shown) [CBK264514], the viability at 28.5 h, 10 µM amounted to 92.6%.
For the molecule `O=C(CC1S/C(=N/N=C/c2ccccc2C(=O)O)NC1=O)Nc1ccccc1` (stereo not shown) [CBK264515], the viability at 28.5 h, 10 µM was found to be 99.7%.
The same measure, in the same setting: to `COc1ccc(-c2ccc(/C=N/N=C3\NC(=O)C(CC(=O)O)S3)o2)c([N+](=O)[O-])c1` (stereo not shown) [CBK264516] belongs 102%; to `O=C(Oc1c(Cl)cc(Cl)c2cccnc12)c1cc(S(=O)(=O)N2CCCCC2)ccc1Cl` [CBK264518], 100%.
Same read-out and setting: to `CN(C)Cc1c(O)ccc2c(=O)c(Oc3ccc(-c4ccccc4)cc3)c(C(F)(F)F)oc12` [CBK264519] belongs 107%; to `CN(C)S(=O)(=O)c1ccc(C(=O)C2=C(O)C(=O)N(CCN3CCOCC3)C2c2ccco2)cc1` (stereo not shown) [CBK264521], 93.4%; to `O=C(C1=C(O)C(=O)N(Cc2cccnc2)C1c1cccnc1)c1ccccc1` (stereo not shown) [CBK264522], 99.5%.
The same measure, in the same setting: in the case of `CCCCOC(=O)CCc1nc2ccccc2nc1O` [CBK264523] it was 97.3%; in that of `NCCCNC(=O)c1ccc(/C=N/O)nc1` [CBK264524], 110%.
As for `CCCOc1ccc(-c2nn(-c3ccccc3)cc2/C=C2\SC(=S)N(CC(=O)O)C2=O)cc1` [CBK264525], the viability at 28.5 h, 10 µM was 111%.
The same measure, in the same setting: in the case of `O=C(C1=C(O)C(=O)N(CCCn2ccnc2)C1c1ccncc1)c1ccccc1` (stereo not shown) [CBK264527] it was 91.6%.
On the same count and under the same terms, to `O=C(C1=C(O)C(=O)N(CCCN2CCOCC2)C1c1cccnc1)c1ccco1` (stereo not shown) [CBK264528] belongs 102%; to `O=C(CC1S/C(=N/N=C/c2cn(Cc3ccccc3)c3ccccc23)NC1=O)Nc1ccccc1` (stereo not shown) [CBK264529], 84%; to `CN(C)CCCN1C(=O)C(O)=C(C(=O)c2ccc(F)cc2)C1c1cccnc1` (stereo not shown) [CBK264531], 107%.
Still for that read-out and setting: in the case of `N#Cc1c(NC(=O)c2cc(S(=O)(=O)N3CCOCC3)cs2)sc2c1CCCC2` [CBK264532] it was 102%; in that of `Cc1ccc(C(=O)NCC(=O)O)cc1S(=O)(=O)N1CCOCC1` [CBK264534], 90.9%.
For `COC(=O)CCN(C)CCC(=O)OC` [CBK264539C], the viability at 28.5 h, 10 µM turned out to be 95.4%.
In the case of `COc1ccc(C2C(C(=O)c3ccco3)=C(O)C(=O)N2CCN2CCOCC2)cc1OC` (stereo not shown) [CBK264544], the viability at 28.5 h, 10 µM amounted to 98.8%.
Same read-out and setting: in the case of `O=C(Oc1cccc2cccnc12)c1cccc(S(=O)(=O)Oc2cccc3cccnc23)c1` [CBK264545] it was 58.4%; in that of `CC(C)c1ccc(C2C(C(=O)c3ccco3)=C(O)C(=O)N2CCCN(C)C)cc1` (stereo not shown) [CBK264549], 94.8%.
For `O=C(NCCc1c[nH]c2ccccc12)c1cc2c(ccc3ccccc32)oc1=O` [CBK264550], the viability at 28.5 h, 10 µM came out at 91.5%.
The same measure, in the same setting: in the case of `O=C(Nc1sc2c(c1C(=O)O)CCCC2)c1cc2ccccc2o1` [CBK264551] it was 91%.
Still for that read-out and setting: in the case of `O=C(O)CCCN1C(=O)/C(=C\c2ccccn2)SC1=S` [CBK264552] it was 92.4%; in that of `O=C(Nc1ccccc1O)c1cc(S(=O)(=O)N2CCCCCC2)ccc1Cl` [CBK264554], 89.1%.
Still for that read-out and setting: in the case of `O=C(NCCCN1CCOCC1)c1ccncc1` [CBK264561F] it was 110%; in that of `COc1ccc(C2=NN(c3ccc([N+](=O)[O-])cc3)C(=O)/C2=C\NCCN2CCOCC2)cc1` [CBK264563], 114%.
Consider `O=C(C1=C(O)C(=O)N(CCCN2CCOCC2)C1c1ccc(Cl)c(Cl)c1)c1cccs1` (stereo not shown) [CBK264565], for which the viability at 28.5 h, 10 µM is 104%.
For the molecule `c1cncc(-c2nc(NCCN3CCOCC3)c3ccccc3n2)c1` [CBK264566C], the viability at 28.5 h, 10 µM was found to be 91%.
Still for that read-out and setting: in the case of `O=C(Nc1cccnc1)c1cc(S(=O)(=O)N2CCCCC2)c(Cl)cc1Cl` [CBK264567] it was 91.9%.
Same read-out and setting: in the case of `CC(=O)C1=C(O)C(=O)N(CCN2CCOCC2)C1c1cccc([N+](=O)[O-])c1` (stereo not shown) [CBK264568] it was 98%.
